Where two headings read alike, the source gives them in different places.

The source of these data is paper PMC9546217, “Exploring novel nitrofuranyl sulfonohydrazides as anti‐Leishmania and anti‐cancer agents: Synthesis, in vitro efficacy and hit identification” (Chemical Biology & Drug Design, 2022).

In series [1] the test system is L. donovani strain 9515 amastigotes. Briefly: Anti-amastigote assay (intramacrophage, THP-1 host, resazurin). Particulars: for IC50: L. donovani 9515, read-out: 9515 IC50 ± SD, Amastigote. In kind it is cell-based. On the procedure: (§1) The activities of synthesized compounds against the intramacrophage parasites of the three Leishmania strains were evaluated using a modified, resazurin‐based method (Jain et al., [2012]; Njanpa et al., [2021]). Suspension cultures of human acute monocytic leukemia (THP‐1) cells were maintained in RPMI‐1640 medium (Sigma Aldrich) supplemented with 10% FBS and 1% penicillin–streptomycin, at 37°C and 5% CO2 in a humidified atmosphere. Duplicate 96‐well plates (for respective anti‐amastigote and cytotoxicity assays) were seeded with 200 μl of a 2.5 × 10^5 cells/ml suspension treated with 25 ng/ml phorbol 12‐myristate 13‐acetate (PMA), followed by 48‐h incubation to promote differentiation into adherent macrophages.
(§2) For the anti‐amastigote assay, differentiated plates were carefully washed with PBS, followed by the addition of 200 μl of stationary phase promastigotes in RPMI 1640 medium with 2% FBS. An MOI of 30:1 was used for all three Leishmania strains. The parasite‐treated plates were incubated for 24 h at 32°C (L. major) or 37°C (L. donovani) and 5% CO2 to promote infection of the macrophages. […] Blanks were represented by growth medium without cells, as well as parasite‐free THP‐1 cells. The treated plates were incubated for 72 h.
(§3) After incubation, the plates were gently washed three times with PBS to remove any remaining extracellular parasites. The wells were then treated with 20 μl of 0.05% sodium dodecyl sulfate in PBS for 30 s to lyse the host macrophages. Lysis was terminated by adding 180 μl promastigote growth medium with 10% FBS. To initiate the resazurin assay, 10 μl of resazurin solution (0.025% in PBS) was added to all wells and the plates were incubated for 24 h at 32°C (L. major) or 37°C (L. donovani) and 5% CO2. Absorbance measurements, calculations, and IC50 determinations were performed as described for the antipromastigote assay (Supinfo S1).
(The colour change of resazurin is a common sign of viable cells or microbes.)

The test system of series [2] is L. major strain IR‐173 amastigotes. The series is described as above. The settings on record: for IC50: read-out: Antileishmanial activity, IC50 ± SD, Amastigote. In kind it is cell-based. Here is the method:
as §1, §2, §3

Series [3] has as its system L. donovani strain 1S amastigotes. The series is described as above. In kind it is cell-based. The settings on record: for IC50: L. donovani 1S, read-out: 1S IC50 ± SD, Amastigote. On the procedure: as §1, §2, §3
Series [4] relates to L. donovani strain 1S promastigotes. The series can be described thus: Antipromastigote assay (resazurin). In kind it is cell-based. Particulars: L. donovani 1S, read-out: 1S IC50 ± SD, Promastigote. On the procedure: (§4) The antipromastigote activity of synthesized compounds was evaluated as described previously by Mangwegape et al. ([2021]) using three strains of L. donovani (1S (MHOM/SD/62/1S) and 9515 (MHOM/IN/95/9515)) and L. major (IR‐173 [MHOM/IR/−173]). The assay method is available in the Supinfo S1.
(§5) The antipromastigote activity of synthesized compounds was evaluated using a modified, resazurin-based method of Kulshrestha et al. ^2 and Siqueira-Neto et al. ^3 and on three Leishmania strains. Leishmania donovani (strains 1S (MHOM/SD/62/1S) and 9515 (MHOM/IN/95/9515)) and L. major (strain IR-173 (MHOM/IR/-173)) promastigotes were cultured in M199 with Hank's salts and 0.68 mM L-glutamine (Sigma Aldrich) supplemented with 50 U/mL Penicillin/Streptomycin solution (Lonza), 4.2 mM sodium bicarbonate, 25 mM Hepes, 10% fetal bovine serum, 0.25% hemin, 0.1% biotin, and 10 mM adenine (Sigma Aldrich) and the pH adjusted to 7.3 – 7.4. The promastigotes were maintained at 25 °C.
(§6) Amphothericin B (10 μM) served as the standard drug and growth medium without parasites served as the blank. The plates were incubated for 48 hours at 25 °C in humidified atmosphere. After incubation, 50 μL of resazurin solution (0.01% in PBS) was added to each well and the plates were further incubated at 25 °C in the dark for 24 hours. Absorbance was measured at 570 nm and 600 nm using the Thermofisher Scientific GO Multiscan plate reader. Data analysis was performed for each biological replicate using SkanIt 4.0 Research Edition software. Background absorbance of resazurin (600 nm) was subtracted from the absorbance values of resorufin (570 nm). The mean absorbance calculated and the percentage growth inhibition and cell viability were determined by the following equations: […]
(§7) The IC50 and Z-score were determined for each compound’s three biological replicates using the cell viability % values and GraphPad Prism 5. The mean IC50 of the biological replicates with standard deviation (SD) served as the final IC50 of each compound.

In series [5] the test system is L. major strain IR‐173 promastigotes. Briefly: Antipromastigote assay (resazurin). It counts as cell-based. The settings on record: L. major IR‐173, read-out: Antileishmanial activity, IC50 ± SD, Promastigote. Here is the method: as §4, §5, §6, §7
Series [6] is described as follows: in vitro. Particulars: African green monkey. Here is the method: (§8) The assay method is available in the Supinfo S1.
(§9) African green monkey kidney epithelial (Vero) cells (Cellonex, South Africa) were cultured and the basal cytotoxicity of the synthesized compounds with antileishmanial and/or anticancer activity was evaluated using the resazurin assay, as described in Mangwegape et al. ^4 Emetine served as the standard cytotoxic drug. Further use of reference drugs, controls, data analysis, calculations and IC50 determinations were identical to that of the antileishmanial assay.

In series [7] the test system is Vero cells. The series can be described thus: Basal cytotoxicity, resazurin assay. The settings on record: read-out: Cytotoxicity, IC50 ± SD, Vero; Vero cells. Here is the method: as §8, §9
Series [8] has as its system L. donovani strain 9515 promastigotes. The series can be described thus: Antipromastigote assay (resazurin). In kind it is cell-based. Particulars: L. donovani 9515, read-out: 9515 IC50 ± SD, Promastigote. On the procedure:
as §4, §5, §6, §7

Series [9] in a line: Cytotoxicity on differentiated host THP-1 macrophages, resazurin assay. In kind it is cell-based, human. The settings on record: human, PMA-differentiated THP-1 macrophages, read-out: Cytotoxicity, IC50 ± SD, THP‐1. Here is the method:
Duplicate 96‐well plates (for respective anti‐amastigote and cytotoxicity assays) were seeded with 200 μl of a 2.5 × 10^5 cells/ml suspension treated with 25 ng/ml phorbol 12‐myristate 13‐acetate (PMA), followed by 48‐h incubation to promote differentiation into adherent macrophages.
Cytotoxicity of the compounds on the differentiated host THP-1 cells were also evaluated. As mentioned, duplicate plates of differentiated THP-1 cells were prepared during the anti-amastigote assay. These plates were incubated for 72 hours to differentiate, instead of replacing the growth medium with parasite-containing medium after 48 hours. […] Blanks were growth medium without cells. The treated plates were incubated for 72 hours, followed by the addition of 50 μL of resazurin solution (0.01% in PBS) to each well and 24-hour incubation.

The test system of series [10] is Clone 15 HL‐60 promyelocytic leukemia cells. The series can be described thus: Anticancer assay (resazurin). In kind it is cell-based, human. The settings on record: n = 3; read-out: Anticancer activity, IC50 ± SD, Clone 15 HL‐60. On the procedure:
(§10) The anticancer activities of synthesized compounds were evaluated using a resazurin‐based assay (Czekanska, [2011]). Accordingly, a screening method similar to that of the cytotoxicity assay was used to screen for anticancer activity, using human melanoma (A375), promyelocytic leukemia (Clone 15 HL‐60), lung cancer (A549), and breast cancer (MCF7) cells. The culture and assay methods are provided in the Supinfo S1.
(§11) The potential anticancer activities of synthesized compounds were screened using the resazurin assay. ^5 Breast adenocarcinoma (MCF7, ATCC® HTB-22™) and human melanoma (A375, ATCC® CRL-1619™) cells were cultured in Hyclone Dulbecco's modified Eagle’s medium with high glucose (Separations) supplemented with 10 % fetal bovine serum (FBS) (Thermofisher Scientific) and 1 % L-glutamine, penicillin-streptomycin and non-essential amino acids (Lonza). Human lung carcinoma (A549, ATCC®, CCL-185™) cells were cultured in Ham’s F12K medium supplemented with 10% FBS and 1% L-glutamine, penicillin-streptomycin and non-essential amino acids. Human promyelocytic leukemia (Clone 15 HL-60, ATCC® CRL-1946™) cells were cultured in RPMI-1640 medium (Sigma Aldrich) supplemented with 10% FBS and 1% penicillin-streptomycin. The cell lines were maintained in a humidified atmosphere at 37 °C and 5% CO2.
(§12) For the resazurin assay, 96 well plates were prepared with 100 μL of 100 000 cells/mL MCF7 cell suspension, 100 μL of 50 000 cells/mL A375 cell suspension, 100 μL of 25 000 cells/mL A549 cell suspension, or 50 μL of 50 000 cells/mL HL-60 cell suspension. The MCF7, A375 and A549 cell plates were incubated for 24 hours to allow adherence of the cells to the plate surface, after which the growth medium is replaced with 100 μL medium containing compounds. […] The cell lines were treated with: (i) parthenolide (Sigma Aldrich) (positive control); (ii) growth medium and solvent (negative control to compensate for possible solvent effects); (iii) growth medium and experimental compound solutions. […] Blanks contained growth medium without cells. The treated plates were incubated for 48 hours.
(§13) To initiate the resazurin assay, 50 μL of sterile-filtered resazurin sodium salt (Sigma Aldrich) solution (0.01 % in PBS) was added and the plates incubated for 2 hours (MCF7, A375 and A549 cells) or 24 hours (HL-60 cells). Absorbance was measured at 570 and 600 nm using the Thermofisher Scientific GO Multiscan plate reader. Data analysis was performed for each biological replicate using SkanIt 4.0 Research Edition software. Further data analysis, calculations and IC50 determinations were identical to that of the antileishmanial and cytotoxicity assays.
(§14) For the final IC50 of each compound, the mean IC50 of the biological replicates were calculated with standard deviation (SD).

For series [11], the system named is A375 melanoma cells. Briefly: Anticancer assay (resazurin). In kind it is cell-based, human. The settings on record: n = 3; read-out: Anticancer activity, IC50 ± SD, A375. On the procedure: as §10, §11, §12, §13, §14

As a reminder, the melting point is the temperature of the solid-liquid transition. For the compound `NNS(=O)(=O)c1cccc2c1OCCO2` [1l, 2,3-Dihydrobenzo[b][1,4]dioxine-5-sulfonohydrazide], the melting point is 101 to 103 °C.
For orientation: IC50 means the concentration at which inhibition is half-maximal. For `C[C@@H]1[C@H](O)[C@@H](C)/C=C/C=C/C=C/C=C/C=C/C=C/C=C/[C@H](O[C@@H]2O[C@H](C)[C@@H](O)[C@H](N)[C@@H]2O)C[C@@H]2O[C@](O)(C[C@@H](O)C[C@@H](O)[C@H](O)CC[C@@H](O)C[C@@H](O)CC(=O)O[C@H]1C)C[C@H](O)[C@H]2C(=O)O` [AMB, Amphotericin B, reference compound], the half-maximal inhibitory concentration (IC50) in [1] (Leishmania donovani, THP-1) amounted to 50 nM; in series [2] (Leishmania major, THP-1, L. major IR‐173) it was 30 nM; in [3] (Leishmania donovani, THP-1), 40 nM; in series [4] (Leishmania donovani) it was 20 nM; in series [5] (Leishmania major), 30 ± 6 nM; in series [6] it was 57800 ± 3220 nM.
`CC[C@H]1CN2CCc3cc(OC)c(OC)cc3[C@@H]2C[C@@H]1C[C@H]1NCCc2cc(OC)c(OC)cc21` [EM, emetine, reference compound]: the 50% inhibitory concentration (IC50) in series [7] is 80 ± 9 nM.
Regarding `NC(=O)N/N=C/c1ccc([N+](=O)[O-])o1` [NFZ, nitrofurazone, reference compound], the “Selectivity index SI6” value in series [1] (L. donovani 9515: IC50 THP‐1/IC50 amastigote) is reported as more than 20. For the same compound, the “Selectivity index SI5” value in [1] (L. donovani 9515: IC50 Vero/IC50 amastigote) was more than 20. Besides, the “Specificity index SpI3” value in series [1] (L. donovani 9515: IC50 promastigote/IC50 amastigote) is 0.37. In addition, in series [2] (L. major IR‐173: IC50 promastigote/IC50 amastigote), the “Specificity index SpI1” value was 0.32. In series [3] (L. donovani 1S: IC50 THP‐1/IC50 amastigote), the “Selectivity index SI4” value was more than 40. For the same compound, the “Selectivity index SI3” value in series [3] (L. donovani 1S: IC50 Vero/IC50 amastigote) is listed as more than 40. For the same compound, the “Specificity index SpI2” value in series [3] (L. donovani 1S: IC50 promastigote/IC50 amastigote) was 2.62. Also, the 50% inhibitory concentration (IC50) in [3] (Leishmania donovani, THP-1) is 2500 ± 400 nM; in series [4] (Leishmania donovani) it was 6540 ± 930 nM; in series [8] (Leishmania donovani), 1850 ± 140 nM; in series [5] (Leishmania major) it was 1850 ± 60 nM; in [6] (Vero cells (kidney epithelial)), more than 100000 nM. Besides, the half-maximal inhibitory concentration (IC50) at 72 h in series [9] was more than 100000 nM.
As for “(E)-4-Fluoro-N'-([5-nitrofuran-2-yl]methylene)-(1,1'-biphenyl)-4-sulfonohydrazide [2i]”, the IC50 in [1] was more than 10000 nM; in series [2] (L. major IR‐173), more than 10000 nM; in series [3], more than 10000 nM; in series [10] it was more than 10000 nM; in series [11], more than 10000 nM; in series [4], 9380 ± 820 nM. In addition, the values for the IC50 in [8], in [5] and in [7] were more than 10000 nM, more than 10000 nM and 29200 ± 5410 nM, respectively.
